# Reference: patent US6897208B2, “Benzimidazoles” (Aventis Pharmaceuticals Inc., priority 2001, dated 2005)
# Key:
# [1] = biological target: T1, human KDR enzyme (Homo sapiens, UniProt P35968); assay: Phosphorylation of PLCγ substrate by the enzyme KDR in vitro (flashplate technique); assay type: biochemical; settings: read-out: IC50 (μM) on inhibition of the phosphorylation of PLCγ by KDR
# T1 construct: The cytoplasmic domain of human KDR enzyme is cloned in the form of a GST fusion; GST; made in house; host or cells: SF21 insect cells (baculovirus, pFastBac)
# Description: 1. Inhibitory Effects of Compounds on KDR
# The inhibitory effect of the compounds is determined in a test of phosphorylation of a substrate by the enzyme KDR in vitro by the flasplate technique (96-well plate, NEN).
# The cytoplasmic domain of human KDR enzyme is cloned in the form of a GST fusion into the baculovirus expression vector pFastBac. The protein is expressed in the SF21 cells and purified to about 60% homogeneity.
# The kinase activity of KDR is measured in 20 mM MOPS, 10 mM MgCl2, 10 mM MnCl2, 1 mM DTT, 2.5 mM EGTA, 10 mM β glycerophosphate, pH 7.2 in the presence of 10 mM MgCl2, 100 μM Na3VO4, 1 mM NaF. 10 μl of the compound are added to 70 μl of kinase buffer containing 100 ng of KDR enzyme at 4° C. The reaction is initiated by adding 20 μl of solution containing 2 μg of substrate (fragment SH2-SH3 of PLCγ expressed in the form of a GST fusion protein), 2 μCi γ33P[ATP] and 2 μM cold ATP. After incubating for 1 hour at 37° C., the reaction is quenched by adding 1 volume (100 μl) of 200 mM EDTA. The incubation buffer is removed and the wells are washed three times with 300 μl of PBS. The radioactivity is measured in each well using a Top Count NXT instrument (Packard).
# Background noise is determined by measuring the radioactivity in wells in quadruplet containing radioactive ATP and the substrate alone.
# An activity control is measured in wells in quadruplet containing all the reagents (γ33P-[ATP], KDR and the substrate PLCγ) and in the absence of compound.
# The inhibition of the KDR activity with the compound of the invention is expressed as a percentage of inhibition of the control activity determined in the absence of compound.
# The compound SU5614 (Calbiochem) (1 μM) is included in each plate as inhibition control.
# The IC50 values for the compounds are calculated by plotting the dose-response curves. The IC50 corresponds to the concentration of compound that induces a 50% inhibition of the kinase activity.
# T1 sequence (P35968 786-1356 limits assumed): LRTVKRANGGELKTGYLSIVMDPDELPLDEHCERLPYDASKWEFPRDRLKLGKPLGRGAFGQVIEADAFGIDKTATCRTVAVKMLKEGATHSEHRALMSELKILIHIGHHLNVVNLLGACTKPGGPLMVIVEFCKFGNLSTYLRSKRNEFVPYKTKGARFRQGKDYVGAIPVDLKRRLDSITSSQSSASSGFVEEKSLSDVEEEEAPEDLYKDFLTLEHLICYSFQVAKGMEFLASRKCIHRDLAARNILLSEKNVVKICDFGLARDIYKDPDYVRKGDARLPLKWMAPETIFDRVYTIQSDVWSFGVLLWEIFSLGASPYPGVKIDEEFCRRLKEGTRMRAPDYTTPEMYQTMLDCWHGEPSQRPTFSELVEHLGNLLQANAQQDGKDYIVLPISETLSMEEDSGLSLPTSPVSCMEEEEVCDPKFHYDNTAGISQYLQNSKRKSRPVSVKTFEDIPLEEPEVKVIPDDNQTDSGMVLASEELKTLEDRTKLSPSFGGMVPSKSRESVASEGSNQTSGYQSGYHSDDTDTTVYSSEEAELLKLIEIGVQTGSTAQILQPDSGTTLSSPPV
Compound,melting point,IC50 [1]
"COc1cc2nc(-c3n[nH]cc3NC(=O)C3CC3)[nH]c2cc1Cl [Example 258(a), Cyclopropanecarboxylic acid [3-(6-chloro-5-methoxy-1H-benzoimidazol-2-yl)-1H-pyrazol-4-yl]-amide]",225 to 226 °C,
"Cc1cc(-c2nc3ccccc3[nH]2)n[nH]1 [Example 236, 2-(5-Methyl-1H-pyrazol-3-yl)-1H-benzoimidazole]",322 to 324 °C,
2-(1H-Indazol-3-yl)-1H-benzimidazole-5-carboxylic acid N-(2-furfuryl)amide [Example 12],,0.16 µM
"CSc1cc(-c2nc3ccccc3[nH]2)no1 [Example 238, 2-(5-Methylsulfanyl-isoxazol-3-yl)-1H-benzoimidazole]",179 to 181 °C,
2-(1H-Indazol-3-yl)-1H-benzimidazole-5-carboxylic acid N-pyrrolidinoamide [Example 9],,0.35 µM
2-(1H-Indazol-3-yl)-1H-benzimidazole-5-carboxylic acid N-(N′-methyl-piperazino)amide [Example 8],,0.67 µM
"CSc1cc(-c2nc3ccccc3[nH]2)n[nH]1 [Example 240, (Benzoimidazol-2-yl)-5-methylthio-3-pyrazole]",242 °C,
"CCOc1cc(-c2nc3ccccc3[nH]2)n[nH]1 [Example 237, 2-(5-Ethoxy-1H-pyrazol-3-yl)-1H-benzoimidazole]",217 to 219.5 °C,
2-(1H-Indazol-3-yl)-1H-benzimidazole-5-carboxylic acid N-morpholinoamide [Example 7],,0.72 µM
